Assay results: article PMC12111771, “Structural Characterization and Bioactivity Evaluation of Selenium-Modified Dihydromyricetin from Vine Tea” (Foods, 2025)
Values after ≈ are worked out from the molar mass of the structure shown.

Key:
[1] = biological target: α-glucosidase (α-GLU); assay: PNPG hydrolysis assay with commercial enzyme, absorbance at […] nm; format: biochemical
[2] = biological target: α-amylase (α-AMY); assay: starch hydrolysis DNS assay with commercial enzyme, absorbance at […] nm; format: biochemical

**Q.** What does the source list for `O=C1c2c(O)cc(O)cc2O[C@H](c2cc(O)c(O)c(O)c2)[C@H]1O` [DHM, Dihydromyricetin]?
**A.** IC50 [1]: 96.12 µg/mL (≈ 0.3 mM); IC50 [2]: 4614 µg/mL (≈ 14.4 mM)
